From US20250333397A1 (REMIX THERAPEUTICS INC., priority 2021, published 2025)
Read-outs that look alike come from different tables or passages of the source.

How the values were obtained:
Assay type in all cases: cell-based, human
[1] = test system: Target C mRNA; experiment: RT-qPCR splicing assay panel, Target C canonical junction (CJ) mRNA; settings: Homo sapiens, canonical junction (CJ) mRNA, RT-qPCR panel, Table 4A; read-out: Target C, decrease in CJ mRNA levels, IC50
Protocol: (§1) Compounds described herein were used to modulate RNA transcript abundance in cells. The expression of a target mRNA was measured by detecting the formation of an exon-exon junction in the canonical transcript (CJ). A compound mediated exon-inclusion event was detected by observing an increase in formation of a new junction with an alternative exon (AJ). Real-time qPCR assays were used to detect these splicing switches and interrogate the potency of various compounds towards different target genes. A high-throughput real time quantitative PCR (RT-qPCR) assay was developed to measure these two isoforms of the mRNA (CJ and AJ) for exemplary genes, such as HTT, SMN2, and MYB, together with a control housekeeping gene, GAPDH or GUSB or PPIA, used for normalization. Briefly, the A673 or K562 cell line was treated with various compounds described herein (e.g., compounds of Formula (I), (II), (III), (IV)). After treatment, the levels of the HTT, MYB, or SMN2 mRNA targets were determined from each sample of cell lysate by cDNA synthesis followed by qPCR.
(§2) The A673 cell line was cultured in DMEM with 10% FBS. Cells were diluted with full growth media and plated in a 96-well plate (15,000 cells in 100ul media per well). The plate was incubated at 37° C. with 5% CO2 for 24 hours to allow cells to adhere. An 11-point 3-fold serial dilution of the compounds was made in DMSO then diluted in media in an intermediate plate. Compounds were transferred from the intermediate plate to the cell plate with the top dose at a final concentration of 10 uM in the well. Final DMSO concentration was kept at or below 0.25%. The cell plate was returned to the incubator at 37° C. with 5% CO2 for an additional 24 hours.
(§3) The K562 cell line was cultured in IMDM with 10% FBS. For K562, cells were diluted with full growth media and plated in either a 96-well plate (50,000 cells in 50 uL media per well) or a 384-well plate (8,000-40,000 cells in 45 uL media per well). An 11-point 3-fold serial dilution of the compounds were made in DMSO then diluted in media in an intermediate plate.
(§4) Compound was transferred from the intermediate plate to the cell plate with the top dose at a final concentration of 10 uM in the well. Final DMSO concentration was kept at or below 0.25%.
(§5) Final volume was 100 uL for 96-well plate and 50 uL for 384-well plate. The cell plate was then placed in an incubator at 37° C. with 5% CO2 for 24 hours.
(§6) The cells were then gently washed with 50 uL-100 uL cold PBS before proceeding to addition of lysis buffer. 30 uL-50 μL of room temperature lysis buffer with DNAse I (and optionally RNAsin) was added to each well. Cells were shaken/mixed thoroughly at room temperature for 5-10 minutes for lysis to take place and then 3 uL-5 μL of room temperature stop solution was added and wells were shaken/mixed again. After 2-5 minutes, the cell lysate plate was transferred to ice for RT-qPCR reaction setup. The lysates could also be frozen at −80° C. for later use.
(§7) In some cases, a direct lysis buffer was used. An appropriate volume of 3× lysis buffer (10 mM Tris, 150 mM NaCl, 1.5%-2.5% Igepal and 0.1-1 U/uL RNAsin, pH 7.4) was directly added to either K562 or A673 cells in media and mixed by pipetting 3 times. The plates were then incubated at room temperature with shaking/rocking for 20-50 minutes to allow for lysis to take place. After this time, the cell lysate plate was transferred to ice to set up for the RT-qPCR reactions. The lysates could also be frozen at −80° C. for later use.
(§8) To set up 10 uL RT-qPCR reactions, cell lysates were transferred to 384-well qPCR plates containing the master mix according to the table below. The plates were sealed, gently vortexed, and spun down before the run. The volumes were adjusted accordingly in some instances where the reaction was carried in 20 μL. The table below summarizes the components of the RT-qPCR reactions: […]

[2] = test system: HTT mRNA; experiment: RT-qPCR splicing assay, HTT canonical (CJ) and alternative (AJ) junction mRNA; settings: for AC50: read-out: HTT AJ (AC50, increase in AJ mRNA)
Protocol: as §1, §2, §3, §4, §5, §6, §7, §8

[3] = test system: SMN2 mRNA; experiment: RT-qPCR splicing assay panel, SMN2 canonical junction (CJ) mRNA; settings: canonical junction (CJ) mRNA, RT-qPCR panel, Table 4A, read-out: SMN2, decrease in CJ mRNA levels, IC50
Protocol: as §1, §2, §3, §4, §5, §6, §7, §8

[4] = test system: MYB mRNA; experiment: RT-qPCR splicing assay, MYB canonical (CJ) and alternative (AJ) junction mRNA; settings: for AC50: read-out: MYB AJ (AC50, increase in AJ mRNA)
Protocol: as §1, §2, §3, §4, §5, §6, §7, §8

[5] = Homo sapiens, 24 h, Table 3A, A673 or K562 cells, 24 h treatment
[6] = Homo sapiens, 24 h, Table 3A, A673 or K562 cells, 24 h treatment, read-out: HTT CJ (IC50, decrease in CJ mRNA)
[7] = Homo sapiens, canonical junction (CJ) mRNA, RT-qPCR panel, Table 4A, read-out: HTT, decrease in CJ mRNA levels, IC50
[8] = Homo sapiens, 24 h, Table 3A, A673 or K562 cells, 24 h treatment, read-out: MYB CJ (IC50, decrease in CJ mRNA)
[9] = Homo sapiens, canonical junction (CJ) mRNA, RT-qPCR panel, Table 4A, read-out: MYB, decrease in CJ mRNA levels, IC50
[10] = Table 3A, A673 or K562 cells, 24 h treatment, read-out: MYB CJ (IC50, decrease in CJ mRNA)

SMILES	IC50 [1] [nM]	IC50 [2, 6] [nM]	IC50 [2, 7] [nM]	IC50 ([3]; Homo sapiens) [nM]	IC50 [4, 8] [nM]	IC50 [4, 9] [nM]	IC50 ([2]; Table 3A, A673 or K562 cells, 24 h treatment, read-out: HTT CJ (IC50, decrease in CJ mRNA)) [nM]	IC50 [3] [nM]	IC50 [4, 10] [nM]	AC50 [2, 5] [nM]	AC50 [4, 5] [nM]	AC50 ([4]; Table 3A, A673 or K562 cells, 24 h treatment) [nM]
COc1cc(-c2cc(O)c(-c3ccc(N4CC[C@@H](N[C@H]5C[C@@H](F)C5)C4)nn3)cc2F)cnn1 (racemic) [Compound 161, 4-fluoro-5-(6-methoxypyridazin-4-yl)-2-[6-(3-{[(1s,3s)-3-fluorocyclobutyl]amino}pyrrolidin-1-yl)pyridazin-3-yl]phenol]	100 to 1000	100 to 1000	100 to 1000	< 100	100 to 1000	100 to 1000				100 to 1000	100 to 1000	
COc1cc(-c2cc(O)c(-c3ccc(N4CC[C@H](N(C)C(C)(C)C)C4)nn3)cc2F)cnn1 [Compound 234, 2-{6-[(3S)-3-[tert-butyl(methyl)amino]pyrrolidin-1-yl]pyridazin-3-yl}-4-fluoro-5-(6-methoxypyridazin-4-yl)phenol]		< 100			< 100					< 100	< 100	
COc1cc(-c2cc(O)c(-c3ccc(N4CC[C@@H](N(C)C(C)(C)C)C4)nn3)cc2F)cnn1 [Compound 235, 2-{6-[(3R)-3-[tert-butyl(methyl)amino]pyrrolidin-1-yl]pyridazin-3-yl}-4-fluoro-5-(6-methoxypyridazin-4-yl)phenol]		< 100			100 to 1000					< 100	100 to 1000	
Cn1cnc(-c2ccc(-c3ccc(N4CC[C@H](NC(C)(C)C)C4)nn3)c(O)c2)cc1=O [Compound 236, 6-(4-{6-[(3S)-3-(tert-butylamino)pyrrolidin-1-yl]pyridazin-3-yl}-3-hydroxyphenyl)-3-methylpyrimidin-4-one]		100 to 1000			100 to 1000					100 to 1000	100 to 1000	
Cn1cnc(-c2ccc(-c3ccc(N4CC[C@@H](NC(C)(C)C)C4)nn3)c(O)c2)cc1=O [Compound 237, 6-(4-{6-[(3R)-3-(tert-butylamino)pyrrolidin-1-yl]pyridazin-3-yl}-3-hydroxyphenyl)-3-methylpyrimidin-4-one]		< 100			100 to 1000					< 100	100 to 1000	
COc1cc(-c2ccc(-c3ccc(N4CC[C@@H](N(C)C5CCC5)C4)nn3)c(O)c2)cnn1 [Compound 238, 2-{6-[(3R)-3-[cyclobutyl(methyl)amino]pyrrolidin-1-yl]pyridazin-3-yl}-5-(6-methoxypyridazin-4-yl)phenol]		< 100			100 to 1000					100 to 1000	100 to 1000	
COc1cc(-c2ccc(-c3ccc(N4CC[C@H](N(C)C5CCC5)C4)nn3)c(O)c2)cnn1 [Compound 239]		< 100			100 to 1000					< 100	100 to 1000	

Further lines, with some results ahead:

IC50 [1] [nM]	IC50 [2, 6] [nM]	IC50 [2, 7] [nM]	IC50 ([3]; Homo sapiens) [nM]	IC50 [4, 8] [nM]	IC50 [4, 9] [nM]	IC50 ([2]; Table 3A, A673 or K562 cells, 24 h treatment, read-out: HTT CJ (IC50, decrease in CJ mRNA)) [nM]	IC50 [3] [nM]	IC50 [4, 10] [nM]	SMILES	AC50 [2, 5] [nM]	AC50 [4, 5] [nM]	AC50 ([4]; Table 3A, A673 or K562 cells, 24 h treatment) [nM]
100 to 1000	< 100	< 100	< 100	1000 to 10000	1000 to 10000				COc1cc(-c2cc(O)c(-c3ccc(N4CC[C@@](C)(NC5CCC5)C4)nn3)cc2F)cnn1 (single isomer, unassigned) [Compound 308, 2-{6-[3-(cyclobutylamino)-3-methylpyrrolidin-1-yl]pyridazin-3-yl}-4-fluoro-5-(6-methoxypyridazin-4-yl)phenol]	100 to 1000	100 to 1000	
100 to 1000	< 100	< 100	< 100	1000 to 10000	1000 to 10000				COc1cc(-c2cc(O)c(-c3ccc(N4CC[C@](C)(NC5CCC5)C4)nn3)cc2F)cnn1 (single isomer, unassigned) [Compound 309, 2-{6-[3-(cyclobutylamino)-3-methylpyrrolidin-1-yl]pyridazin-3-yl}-4-fluoro-5-(6-methoxypyridazin-4-yl)phenol]	100 to 1000	1000 to 10000	
< 100	< 100	< 100	< 100	100 to 1000	100 to 1000				Cc1ncc(-c2cc(O)c(-c3ccc(N4CC[C@@](C)(NCC5CC5)C4)nn3)cc2F)s1 (single isomer, unassigned) [Compound 399]	< 100	100 to 1000	
< 100	< 100	< 100	< 100	100 to 1000	100 to 1000				Cc1ncc(-c2cc(O)c(-c3ccc(N4CC[C@](C)(NCC5CC5)C4)nn3)cc2F)s1 (single isomer, unassigned) [Compound 400]	< 100	100 to 1000	
100 to 1000	< 100	< 100	< 100	100 to 1000	100 to 1000				Cc1ncc(-c2ccc(-c3ccc(N4CC[C@](C)(NCC5CC5)C4)nn3)c(O)c2)s1 (single isomer, unassigned) [Compound 438]	100 to 1000	100 to 1000	
< 100	< 100	< 100	< 100	100 to 1000	100 to 1000				Cc1ncc(-c2ccc(-c3ccc(N4CC[C@@](C)(NCC5CC5)C4)nn3)c(O)c2)s1 (single isomer, unassigned) [Compound 439]	< 100	100 to 1000	
	< 100			100 to 1000					COc1cc(-c2ccc(-c3ccc(N4CC[C@H](NC5(CF)CC5)C4)nn3)c(O)c2)cnn1 [Compound 241, 2-{6-[(3S)-3-{[1-(fluoromethyl)cyclopropyl]amino}pyrrolidin-1-yl]pyridazin-3-yl}-5-(6-methoxypyridazin-4-yl)phenol]	100 to 1000	100 to 1000	
	< 100			100 to 1000					COc1cc(-c2ccc(-c3ccc(N4CC[C@@H](NC5(CF)CC5)C4)nn3)c(O)c2)cnn1 [Compound 242, 2-{6-[(3R)-3-{[1-(fluoromethyl)cyclopropyl]amino}pyrrolidin-1-yl]pyridazin-3-yl}-5-(6-methoxypyridazin-4-yl)phenol]	100 to 1000	100 to 1000	
						< 100	< 100	< 100	Cc1ncc(-c2cc(O)c(-c3ccc(N4CC[C@H](N[C@H](C)C5CC5)C4)nn3)cc2F)s1 [Compound 394]			< 100
							< 100	100 to 1000	Cc1nnc(-c2ccc(-c3ccc(N4CC[C@@H](NCC5CC5)C4)nn3)c(O)c2)s1 [Compound 416]			
